According to patent EP4631969A1, “PEPTIDE FOR CARTILAGE REGENERATION, AND USES THEREOF” (Caregen Co., Ltd., priority 2022, dated 2024):
Where no end group is shown, it is not given here.

Tested on: Human Adipose-Derived Mesenchymal Stem Cells (AD-MSC)
Assay: Confirmation of cytotoxicity (CCK-8 activity test and SRB staining)
Format: cell-based
Conditions: about 1 to 200 µg/ml, 7 days of culture; for cytotoxicity: CCK-8; for change in cell morphology: SRB staining, microscope
Experimental: Human Adipose-Derived Mesenchymal Stem Cells (AD-MSC) were treated with Peptide-1 or Peptide-2 to determine whether they were cytotoxic.
Specifically, AD-MSCs were seeded in 96-well plates at a concentration of about 1.5 x 10^3 cells/well and cultured in DMEM medium (about 10 % FBS + DMEM medium) for about 24 hours. […] After 7 days of culture, about 1/10 of the culture medium was treated with a CCK-8 (Dojindo, CCK-8 kit) solution and cultured for about 2 hours. After incubation, the culture medium was sampled and the absorbance was measured at a wavelength of about 450 nm using a microplate reader. After measuring the absorbance, the medium in the culture medium in the 96-well plate was removed, and about 60 µl of 3.7 % formalin was added to the 96-well plate to fix the cells for about 1 minute. After cell fixation, the formalin was removed, and about 70 ul of SRB staining solution (about 0.2 g of Sulforhodamine B sodium salt (sigma, S9012) dissolved in about 100 ml of double-distilled water) was added to the fixed cells, and the cells were stained by culturing overnight at room temperature in a lightblocking condition. After cell staining, the cells were washed with about 1 % acetic acid and dried. The dried cells were observed under a microscope. As control groups, an experimental group (CON) that was not treated with the above peptide and an experimental group (CM) treated with a solution containing about 100 nM dexamethasone, about 50 µM ascorbic acid, about 40 µM proline, about 10 ng/ml TGFβ1, and 1X ITS instead of the above peptide were used.

| Substance | cytotoxicity | change in cell morphology |
| --- | --- | --- |
| HHEQF [Peptide-2, HHEQF] | no cytotoxicity was caused | no change in cell morphology occurred at all concentrations |
| STGALSTSFTEE [Peptide-1, STGALSTSFTEE] | no cytotoxicity was caused | no change in cell morphology occurred at all concentrations |
